Experiment [1] addresses T1, recombinant human ALK5 (TGF-βR1) protein (Homo sapiens, UniProt P36897).
T1 construct: purchased Life Technologies PR9075A
T1 sequence (P36897 34-503): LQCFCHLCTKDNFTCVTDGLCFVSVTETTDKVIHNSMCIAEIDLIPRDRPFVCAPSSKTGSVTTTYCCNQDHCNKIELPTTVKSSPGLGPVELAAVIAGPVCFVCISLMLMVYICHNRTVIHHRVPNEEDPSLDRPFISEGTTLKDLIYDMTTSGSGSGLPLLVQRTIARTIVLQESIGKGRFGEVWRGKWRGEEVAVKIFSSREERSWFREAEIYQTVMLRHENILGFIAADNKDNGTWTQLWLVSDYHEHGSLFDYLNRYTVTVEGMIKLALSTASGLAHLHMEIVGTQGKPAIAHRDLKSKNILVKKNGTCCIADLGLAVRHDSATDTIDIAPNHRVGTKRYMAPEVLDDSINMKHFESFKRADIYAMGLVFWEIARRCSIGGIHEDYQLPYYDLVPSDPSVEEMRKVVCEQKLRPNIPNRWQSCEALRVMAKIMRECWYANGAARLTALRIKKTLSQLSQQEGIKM
The experiment in a line: Biochemical ALK5 (TGF-βR1) assay to measure pKi (LANCE Ultra ULight kinase assay). Conditions: apparent pKi from pIC50 by Cheng-Prusoff, read-out: ALK5 pKi (converted). In short, it runs like this:
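After a 60 min room-temperature preincubation of ALK5 with compound, phosphorylation proceeds 60 min at 37 °C on ATP addition (125 μM as 5× stock). Detection: Eu-labelled phospho-Thr1342 Topo IIα antibody in EDTA buffer, pH 7.0; emission 665 nm.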
(In TR-FRET formats the signal depends on donor and acceptor labels being close together.)

Experiment [2] has as its system TGF-β-stimulated SMAD3 phosphorylation in BEAS-2B cells. The experiment in a line: Cellular ALK5 potency assay, inhibition of TGF-β stimulated pSMAD3 formation in BEAS-2B cells. In kind it is cell-based. Conditions: Homo sapiens; inhibition of TGF-β stimulated pSMAD3 formation, BEAS-2B cells; read-out: BEAS2B pIC50 (converted). In short, it runs like this: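 SMAD3 phosphorylation was measured by AlphaLISA after 30 min TGF-β stimulation (10 ng/mL final) of BEAS-2B cells preincubated 1 h with compound at 37 °C. Results given as pIC50.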

Each structure is given as a SMILES string.

For `Cc1cccc(-c2n[nH]cc2-c2ccc3ncc(-c4nn[nH]n4)cc3n2)n1` [Compound 177, 2-[3-(6-methyl-2-pyridyl)-1H-pyrazol-4-yl]-7-(2H-tetrazol-5-yl)-1,5-naphthyridine], the Ki in experiment [1] was 0.0398 to 0.316 nM. Also, the IC50 in experiment [2] is 1580 to 10000 nM.

In the case of `Cc1nc(-c2nc3ccccn3c2-c2ccc3ncc(N4CCNCC4)cc3n2)ccc1F` [Compound 2, 2-[2-(5-fluoro-6-methyl-2-pyridyl)imidazo[1,2-a]pyridin-3-yl]-7-piperazin-1-yl-1,5-naphthyridine], the Ki in experiment [1] was 0.0398 to 0.316 nM. The IC50 in experiment [2] is 25.1 to 158 nM.

For the compound `Cc1cccc(-c2[nH]cnc2-c2ccc3ncc(-c4ccnc(C(=O)O[C@@H]5CCNC5)c4)cc3c2)n1` [Compound 1050, [(3R)-pyrrolidin-3-yl] 4-[6-[5-(6-methyl-2-pyridyl)-1H-imidazol-4-yl]-3-quinolyl]pyridine-2-carboxylate], the Ki in experiment [1] is 0.0398 to 0.316 nM. For the same compound, the IC50 in experiment [2] is 200 to 1260 nM.

For `Cc1cccc(-c2[nH]cnc2-c2ccc3ncc(N4CC(N(C)C)C4)cc3c2)n1` [Compound 648, N,N-dimethyl-1-[6-[5-(6-methyl-2-pyridyl)-1H-imidazol-4-yl]-3-quinolyl]azetidin-3-amine], the Ki in experiment [1] is 0.0398 to 0.316 nM. In experiment [2], the IC50 is 25.1 to 158 nM.

Turning to `CNC1CCCN(c2cnc3ccc(-c4c[nH]nc4-c4cccc(C)n4)nc3c2)C1` (stereo not shown) [Compound 606, N-methyl-1-[6-[3-(6-methyl-2-pyridyl)-1H-pyrazol-4-yl]-1,5-naphthyridin-3-yl]piperidin-3-amine], the Ki in experiment [1] was 0.0398 to 0.316 nM. For the same compound, in experiment [2], the IC50 was 25.1 to 158 nM.

For `Cc1cccc(-c2[nH]cnc2-c2ccc3ncc(C(=O)OCCCN4CC5(CCNCC5)C4)cc3c2)n1` [Compound 903, 3-(2,7-diazaspiro[3.5]nonan-2-yl)propyl 6-(5-(6-methylpyridin-2-yl)-1H-imidazol-4-yl)quinoline-3-carboxylate], in experiment [1], the Ki is 0.0398 to 0.316 nM. Besides, the IC50 in experiment [2] is 200 to 1260 nM.

On to `Cc1cccc(-c2[nH]cnc2-c2ccc3ncc(N4CC5(CCNCC5)C4)cc3c2)n1` [Compound 179, 3-(2,7-diazaspiro[3.5]nonan-2-yl)-6-[5-(6-methyl-2-pyridyl)-1H-imidazol-4-yl]quinoline], for which the Ki in experiment [1] is 0.0398 to 0.316 nM. In addition, the IC50 in experiment [2] was 25.1 to 158 nM.

On to `Cc1cccc(-c2n[nH]cc2-c2ccc3ncc(-c4ccnnc4)cc3n2)n1` [Compound 215, 2-[3-(6-methyl-2-pyridyl)-1H-pyrazol-4-yl]-7-pyridazin-4-yl-1,5-naphthyridine], for which the Ki in experiment [1] was less than 0.0316 nM. The IC50 in experiment [2] is less than 20 nM.

With `Cc1cccc(-c2n[nH]cc2-c2ccc3nccc(N4CC(N5CCOCC5)C4)c3n2)n1` [Compound 846, 4-[1-[6-[3-(6-methyl-2-pyridyl)-1H-pyrazol-4-yl]-1,5-naphthyridin-4-yl]azetidin-3-yl]morpholine], the Ki in experiment [1] was 0.398 to 3.16 nM. For the same compound, in experiment [2], the IC50 was 200 to 1260 nM.

On to `Cc1cccc(-c2nc3ccccn3c2-c2ccc3ncc(N4CCC(N5CCN(C)CC5)CC4)cc3c2)n1` [Compound 95, 3-[4-(4-methylpiperazin-1-yl)-1-piperidyl]-6-[2-(6-methyl-2-pyridyl)imidazo[1,2-a]pyridin-3-yl]quinoline], for which, in experiment [1], the Ki was 0.0398 to 0.316 nM. For the same compound, the IC50 in experiment [2] is 25.1 to 158 nM.

For `Cc1cccc(-c2nnn(Cc3ccccc3)c2-c2ccc3ncc(N4CCCNCC4)cc3n2)n1` [Compound 257, 2-[3-benzyl-5-(6-methyl-2-pyridyl)triazol-4-yl]-7-(1,4-diazepan-1-yl)-1,5-naphthyridine], the Ki in experiment [1] was 0.0398 to 0.316 nM. In addition, the IC50 in experiment [2] was 200 to 1260 nM.

As to `COC(=O)N1CCc2nnc(-c3cnc4ccc(-c5c[nH]nc5-c5cccc(C)n5)nc4c3)cc2C1` [Compound 613, methyl 3-[6-[3-(6-methyl-2-pyridyl)-1H-pyrazol-4-yl]-1,5-naphthyridin-3-yl]-7,8-dihydro-5H-pyrido[4,3-c]pyridazine-6-carboxylate], the Ki in experiment [1] is 0.0398 to 0.316 nM. The IC50 in experiment [2] was 25.1 to 158 nM.

Take `Cc1cccc(-c2n[nH]cc2-c2ccc3ncc(N4CCNC(CO)C4)cc3n2)n1` (stereo not shown) [Compound 66, [4-[6-[3-(6-methyl-2-pyridyl)-1H-pyrazol-4-yl]-1,5-naphthyridin-3-yl]piperazin-2-yl]methanol]: in experiment [1], the Ki is 0.0398 to 0.316 nM. Further, in experiment [2], the IC50 was 25.1 to 158 nM.

For the compound `Cc1cccc(-c2[nH]cnc2-c2ccc3ncc(Nc4ccc(N5CCN(C)CC5)cn4)cc3c2)n1` [Compound 441, N-[5-(4-methylpiperazin-1-yl)-2-pyridyl]-6-[5-(6-methyl-2-pyridyl)-1H-imidazol-4-yl]quinolin-3-amine], the Ki in experiment [1] was less than 0.0316 nM. In addition, in experiment [2], the IC50 was 25.1 to 158 nM.

Take `Cc1cccc(-c2n[nH]cc2-c2ccc3nccc(N(C)C)c3n2)n1` [Compound 837, N,N-dimethyl-6-[3-(6-methyl-2-pyridyl)-1H-pyrazol-4-yl]-1,5-naphthyridin-4-amine]: in experiment [1], the Ki was 0.0398 to 0.316 nM. Besides, in experiment [2], the IC50 is 25.1 to 158 nM.

For `Cc1cccc(-c2n[nH]cc2-c2ccc3ncc(-c4ccc(C5CCCN(C)C5)cc4)cc3n2)n1` (stereo not shown) [Compound 552, 7-[4-(1-methyl-3-piperidyl)phenyl]-2-[3-(6-methyl-2-pyridyl)-1H-pyrazol-4-yl]-1,5-naphthyridine], the Ki in experiment [1] was less than 0.0316 nM. In addition, in experiment [2], the IC50 was 200 to 1260 nM.

On to `Cc1cccc(-c2[nH]cnc2-c2ccc3ncc(N4CCCNCC4)cc3n2)n1` [Compound 307, 7-(1,4-diazepan-1-yl)-2-(5-(6-methylpyridin-2-yl)-1H imidazol-4-yl)-1,5-naphthyridine], for which the Ki in experiment [1] was 0.0398 to 0.316 nM. The IC50 in experiment [2] was 25.1 to 158 nM.

On to `COC(=O)CC1CN(c2cnc3ccc(-c4nc[nH]c4-c4cccc(C)n4)cc3c2)CCN1` (stereo not shown) [Compound 60, methyl 2-(4-(6-(5-(6-methylpyridin-2-yl)-1H-imidazol-4-yl)quinolin-3-yl)piperazin-2-yl)acetate], for which, in experiment [1], the Ki is 0.0398 to 0.316 nM. In addition, in experiment [2], the IC50 is 25.1 to 158 nM.

As to `Cc1cccc(-c2n[nH]cc2-c2ccc3ncc(N4CCNC(C(N)=O)C4)cc3n2)n1` (racemic) [Compound 497, rac-(2S)-4-[6-[3-(6-methyl-2-pyridyl)-1H-pyrazol-4-yl]-1,5-naphthyridin-3-yl]piperazine-2-carboxamide], the Ki in experiment [1] was 0.0398 to 0.316 nM. Moreover, the IC50 in experiment [2] is 200 to 1260 nM.

Regarding `Cc1cccc(-c2[nH]cnc2-c2ccc3ncc(C(=O)OCC4CC5(CNC5)C4)cc3c2)n1` [Compound 1116, 2-azaspiro[3.3]heptan-6-ylmethyl 6-[5-(6-methyl-2-pyridyl)-1H-imidazol-4-yl]quinoline-3-carboxylate], the Ki in experiment [1] was 0.0398 to 0.316 nM. The IC50 in experiment [2] is 200 to 1260 nM.

On to `Cc1cccc(-c2n[nH]cc2-c2ccc3ncc(-c4[nH]nc5c4CCNC5)cc3n2)n1` [Compound 622, 2-[3-(6-methyl-2-pyridyl)-1H-pyrazol-4-yl]-7-(4,5,6,7-tetrahydro-2H-pyrazolo[3,4-c]pyridin-3-yl)-1,5-naphthyridine], for which the Ki in experiment [1] was 0.0398 to 0.316 nM. Also, the IC50 in experiment [2] is 200 to 1260 nM.

For the compound `Cc1nc(-c2n[nH]cc2-c2ccc3ncc(-c4cnn([C@@H]5CCC[C@@H]5N)c4)cc3n2)ccc1F` [Compound 569, (1S,2R)-2-[4-[6-[3-(5-fluoro-6-methyl-2-pyridyl)-1H-pyrazol-4-yl]-1,5-naphthyridin-3-yl]pyrazol-1-yl]cyclopentanamine], the Ki in experiment [1] is 0.0398 to 0.316 nM. Moreover, the IC50 in experiment [2] was 25.1 to 158 nM.

As for `CNCC1CN(c2cnc3ccc(-c4c[nH]nc4-c4cccc(C)n4)nc3c2)C1` [Compound 672, N-methyl-1-[1-[6-[3-(6-methyl-2-pyridyl)-1H-pyrazol-4-yl]-1,5-naphthyridin-3-yl]azetidin-3-yl]methanamine], the Ki in experiment [1] was 0.0398 to 0.316 nM. Also, the IC50 in experiment [2] is 25.1 to 158 nM.

As to `CNC(=O)c1cnc2ccc(-c3cn[nH]c3-c3cccc(C)n3)nc2c1` [Compound 675, N-methyl-6-[5-(6-methyl-2-pyridyl)-lH-pyrazol-4-yl]-1,5-naphthyridine-3-carboxamide], the Ki in experiment [1] is 0.0398 to 0.316 nM. In addition, in experiment [2], the IC50 is 25.1 to 158 nM.

Take `Cc1nc(-c2nc3ccccn3c2-c2ccc3ncc(NCCN4CCN(C(C)C)CC4)cc3c2)ccc1F` [Compound 620, 6-[2-(5-fluoro-6-methyl-2-pyridyl)imidazo[1,2-a]pyridin-3-yl]-N-[2-(4-isopropylpiperazin-1-yl)ethyl]quinolin-3-amine]: the Ki in experiment [1] was 0.0398 to 0.316 nM. In experiment [2], the IC50 was 25.1 to 158 nM.

Consider `Cc1cccc(-c2[nH]cnc2-c2ccc3ncc(C(=O)O[C@@H]4CCCNC4)cc3c2)n1` [Compound 781, [(3R)-3-piperidyl] 6-[5-(6-methyl-2-pyridyl)-1H-imidazol-4-yl]quinoline-3-carboxylate], for which the Ki in experiment [1] is 0.398 to 3.16 nM. Besides, the IC50 in experiment [2] was 25.1 to 158 nM.

For the origin of these results see patent US11590116B2 (THERAVANCE BIOPHARMA R&D IP, LLC, priority 2019, dated 2023).
